Measurements published in patent US10981932B2, “Macrocyclic indole derivatives” (Bayer Aktiengesellschaft, priority 2016, dated 2021).
Where a name gives a salt, the structure may show the parent alone. Read-outs that look alike come from different tables or passages of the source.

Assays:
SK-MEL-2 = test: Anti-proliferative effect (CellTiter-Glo, 72 h), SK-MEL-2; format: cell-based; conditions: Homo sapiens, SK-MEL-2 cells, median, read-out: IC50 antiproliferation assay SK-MEL-2 [M] (median)
Description: Assessment of the Anti-Proliferative Effect of Compounds in Different Cell Lines
(§1) The impact of compounds on the proliferation of different cell lines was assessed using the CellTiter-Glo® Luminescent Cell Viability reagent from Promega (G7573). Of note, SUDHL10 and SUDHL5 (DLBCL), NCI-H929 (Multiple Myeloma), A2780 (ovarian carcinoma) as well as MV-4-11(AML) cells are sensitive to MCL-1 inhibition.
(§2) In parallel, cells were plated in a reference (day 0) plate for time zero determination.
(§3) Rim wells were excluded. The cells were incubated for 72 h hours in a humidified incubator at 37° C. The day 0 plate was measured by adding 30 μl/well of CTG solution (CellTiter-Glo® Luminescent Cell Viability reagent, Promega G7573) to time zero wells in the reference plate followed by a 10 minutes incubation and luminescence reading at 0.1 ms, using the PHERAstar FS microplate reader (BMG Labtech).
(§4) After 72 h incubation, the treated plates were measured in the same way as the day 0 plate mentioned above.

NCI-H1703 = test: Anti-proliferative effect (CellTiter-Glo, 72 h), NCI-H1703; format: cell-based; conditions: Homo sapiens, NCI-H1703 cells, median, read-out: IC50 antiproliferation assay NCI-H1703 [M] (median)
Description: as §1, §2, §3, §4

SUDHL5 [1] = test: Induction of caspase-3/7 activity (Caspase-Glo 3/7), SUDHL5; format: cell-based; conditions: caspase-3/7 induction, SUDHL5 cells, 3 h treatment; median
Summary of the method: (§5)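 Caspase-Glo 3/7 luminescence measured after 3 h compound exposure at 37 °C in SUDHL10 and SUDHL5 cells. EC50 values come from background-corrected signals, with curve bottom set to 1 and plateau set to maximal induction by the reference compound.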

SUDHL5 [2] = test: Induction of cytotoxicity (CellTiter-Glo, 5 h), SUDHL5; conditions: read-out: Cytotox SUDHL5 [M] (median), SUDHL5 cells, cytotoxicity induction, CellTiter-Glo, median
SUDHL5 [3] = test: Anti-proliferative effect (CellTiter-Glo, 72 h), SUDHL5; format: cell-based; conditions: SUDHL5 cells, antiproliferation, median, read-out: Antiproli SUDHL5 [M] (median)
Summary of the method: (§6)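 Anti-proliferative activity is derived from ATP-based luminescence (CellTiter-Glo) in cells exposed to compound for 72 h at 37 °C, set against a time zero plate read at seeding.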

SUDHL10 [4] = test: Induction of caspase-3/7 activity (Caspase-Glo 3/7), SUDHL10; format: cell-based; conditions: caspase-3/7 induction, SUDHL10 cells, 3 h treatment; median
Summary of the method: as §5

MCL-1 = MCL-1 (Homo sapiens, UniProt Q07820); test: Protein-protein interaction assay MCL-1/Noxa BH3 peptide (MCL-1 assay), TR-FRET; format: binding; conditions: MBP-MCL-1 / Noxa BH3-derived peptide, median
Summary of the method: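 MBP-MCL-1 (1 nM final) was preincubated 10 min at 22 °C with compounds (11 concentrations, 0.1 nM–20 μM, duplicates) in Tris pH 7 buffer with NaCl, KF, Tween-20, DTT and BGG. After 1 h at 22 °C in the dark plus overnight at 4 °C, anti-MBP Eu-cryptate/streptavidin-XL665 TR-FRET was read; IC50 came from a 4-parameter fit.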

SUDHL10 [5] = test: Induction of cytotoxicity (CellTiter-Glo, 5 h), SUDHL10; conditions: read-out: Cytotox SUDHL10 [M] (median), SUDHL10 cells, cytotoxicity induction, CellTiter-Glo, median
MV-4-11 = test: Anti-proliferative effect (CellTiter-Glo, 72 h), MV-4-11; format: cell-based; conditions: MV-4-11 cells, median, read-out: IC50 antiproliferation assay MV-4-11 [M] (median)
Summary of the method: as §6

A2780 = test: Anti-proliferative effect (CellTiter-Glo, 72 h), A2780; format: cell-based; conditions: Homo sapiens, A2780, 72 h, A2780 cells, median, read-out: IC50 antiproliferation assay A2780 [M] (median)
Summary of the method: as §6

SUDHL10 [6] = test: Anti-proliferative effect (CellTiter-Glo, 72 h), SUDHL10; format: cell-based; conditions: SUDHL10 cells, antiproliferation, 72 h incubation, median, read-out: Antiproli SUDHL10 [M] (median)
Summary of the method: as §6

MCL-1, sequence (Q07820 whole entry): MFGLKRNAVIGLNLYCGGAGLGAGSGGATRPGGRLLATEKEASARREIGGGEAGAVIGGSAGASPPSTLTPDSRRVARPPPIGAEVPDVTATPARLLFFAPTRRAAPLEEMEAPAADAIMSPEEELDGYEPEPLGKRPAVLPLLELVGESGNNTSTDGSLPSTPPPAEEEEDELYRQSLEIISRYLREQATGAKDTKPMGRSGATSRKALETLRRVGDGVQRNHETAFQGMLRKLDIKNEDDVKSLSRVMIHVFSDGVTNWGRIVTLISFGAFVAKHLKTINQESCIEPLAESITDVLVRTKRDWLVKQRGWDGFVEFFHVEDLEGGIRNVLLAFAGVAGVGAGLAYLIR

Compound	IC50 (SK-MEL-2)	IC50 (NCI-H1703)	EC50 (SUDHL5 [1])	IC50 (SUDHL5 [2]; 5 h)	IC50 (SUDHL5 [3]; 72 h)	EC50 (SUDHL10 [4])	IC50 (MCL-1)	IC50 (SUDHL10 [5]; 5 h)	IC50 (MV-4-11; Homo sapiens, MV4-11, 72 h)	IC50 (A2780)	IC50 (SUDHL5 [2]; 5 h incubation)	IC50 (SUDHL5 [3]; 72 h incubation)	IC50 (SUDHL10 [6])	IC50 (SUDHL10 [5]; 5 h incubation)	IC50 (MV-4-11)
CCc1nn(C)c2c1-c1cccc3c(CCCOc4cccc5cc(F)ccc45)c(C(=O)O)n(c13)CCCCOC2 (single isomer, unassigned) [Example 288, (+)-3-ethyl-7-{3-[(6-fluoronaphthalen-1-yl)oxy]propyl}-1-methyl-1,10,11,12,13,15-hexahydropyrazolo[4′,3′:9,10][1,6]oxazacycloundecino[8,7,6-hi]indole-8-carboxylic Acid]	> 3.3e-05 M	1.76e-05 M	1.57 µM	1.68e-06 M	1.54e-06 M	5.85 µM	0.00149 µM	6.54e-06 M	9.86e-06 M	> 3.3e-05 M	–	–	–	–	–
CCc1nn(CCN2CCOCC2)c2c1-c1cccc3c(CCCOc4cccc5ccccc45)c(C(=O)O)n(c13)CCCCOC2 (single isomer, unassigned; enantiomer 1) [Example 199, 3-ethyl-1-[2-(morpholin-4-yl)ethyl]-7-[3-(naphthalen-1-yloxy)propyl]-1,10,11,12,13,15-hexahydropyrazolo[4′,3:9,10][1,6]oxazacycloundecino[8,76-hi]indole-8-carboxylic Acid (Enantiomer 1)]	2.9e-05 M	1.46e-05 M	0.899 µM	–	–	3.46 µM	0.00126 µM	–	7.51e-06 M	1.57e-05 M	9.25e-07 M	1.65e-06 M	1.13e-06 M	2.92e-06 M	–
CCc1nn(C)c2c1-c1c(C)ccc3c(CCCOc4cccc5cc(F)ccc45)c(C(=O)O)n(c13)CCCCOC2 (single isomer, unassigned) [Example 267, (+)-3-ethyl-7-{3-[(6-fluoronaphthalen-1-yl)oxy]propyl}-1,4-dimethyl-1,10,11,12,13,15-hexahydropyrazolo[4′,3′:9,10][1,6]oxazacycloundecino[8,7,6-hi]indole-8-carboxylic Acid]	2e-05 M	1.36e-05 M	1.14 µM	–	–	4.6 µM	0.00037 µM	–	7.02e-06 M	2.15e-05 M	1.11e-06 M	1.89e-06 M	–	3.66e-06 M	–
Cc1c2c(nn1CCN1CCOCC1)COCCCCn1c(C(=O)O)c(CCCOc3cccc4cc(F)ccc34)c3cccc-2c31 (single isomer, unassigned) [Example 285, (+)-7-{3-[(6-fluoronaphthalen-1-yl)oxy]propyl}-3-methyl-2-[2-(morpholin-4-yl)ethyl]-2,10,11,12,13,15-hexahydropyrazolo[4′,3′:9,10][1,6]oxazacycloundecino[8,7,6-hi]indole-8-carboxylic acid-N-ethylethanamine Salt]	1.09e-05 M	6.98e-06 M	0.646 µM	–	–	1.41 µM	0.000782 µM	–	–	1.22e-05 M	7.5e-07 M	9.39e-07 M	–	2.81e-06 M	3.61e-06 M
CCc1c2c(nn1C)COCCCCn1c(C(=O)O)c(CCCOc3cccc4cc(F)ccc34)c3cccc-2c31 (single isomer, unassigned) [Example 282, (+)-3-ethyl-7-{3-[(6-fluoronaphthalen-1-yl)oxy]propyl}-2-methyl-2,10,11,12,13,15-hexahydropyrazolo[4′,3′:9,10][1,6]oxazacycloundecino[8,7,6-hi]indole-8-carboxylic acid-N-ethylethanamine Salt]	1.25e-05 M	4.85e-06 M	0.385 µM	–	–	0.906 µM	0.00109 µM	–	–	8.66e-06 M	6.16e-07 M	5.78e-07 M	–	7.8e-07 M	3.69e-06 M
